Experimental findings from patent US5525328A, “Nanoparticulate diagnostic diatrizoxy ester X-ray contrast agents for blood pool and lymphatic system imaging” (NanoSystems L.L.C., priority 1994, dated 1996) are described below.

One series relates to liver. In words: CT imaging, liver opacification and clearance. The class given is in vivo, white New Zealand rabbits. On the procedure:
(§1) This sample was examined for imaging efficacy at the Center for Imaging and Pharmaceutical Research (CIPR) at the Massachusetts General Hospital in Charlestown, Mass. The sample was injected into white New Zealand rabbits at a dose of 3 ml/kg as a slow bolus injection. At times of 5, 15, 30, 60 and 120 min. post injection, the opacification of the liver, spleen, and blood pool as measured in the aorta and within the left ventricle was determined by computed tomography (CT) using a Toshiba 900S Imager CT scanner and associated software.

Series [1] is described as follows: Aqueous solubility relative to the butyrate ester. The class given is physicochemical.
Another series has as its system spleen. As to the kind of experiment: CT imaging, spleen opacification and clearance. The class given is in vivo, white New Zealand rabbits. How it is done:
This sample was examined for imaging efficacy at the Center for Imaging and Pharmaceutical Research (CIPR) at the Massachusetts General Hospital in Charlestown, Mass. The sample was injected into white New Zealand rabbits at a dose of 3 ml/kg as a slow bolus injection. […], the opacification of the liver, spleen, and blood pool as measured in the aorta and within the left ventricle was determined by computed tomography (CT) using a Toshiba 900S Imager CT scanner and associated software.

The next series has as its system lymph. In words: Lymphographic imaging by CT. The class given is in vivo, New Zealand White Rabbits. The note with it: autoclaved Pluronic F-108/PEG 400 formulation; 2 injections (0.25 ml) per paw. How it is done: (§2) This formulation was evaluated at CIPR for both blood pool and lymphographic imaging in New Zealand White Rabbits using the above-described protocol (3 ml/kg) for blood pool imaging and 2 injections (0.25 ml) per paw for lymphography. […] Scanning was carried out using a Toshiba 900S Imager CT scanner and image density was calculated from iodinated standards imaged simultaneously with the animals.

Series [2] in a line: Particle size after storage for 1 additional week at room temperature (shelf stability). The class given is physicochemical. The following applies: with both F108 and T908. How it is done:
Compound 2 was added to each of 3×1.5 oz brown glass bottles containing approximately 12 ml of zirconium silicate (1.1 mm dia.) beads in an amount sufficient to be 15% (w/v) of the final suspension. Bottle A contained 3% (w/v) Pluronic F-68. Bottle B contained 3% (w/v) Pluronic F108. Bottle C contained 3% (w/v) Tetronic T-908. The resulting suspensions were milled on a roller mill at approximately 150 rpm for a total of 9 days. Estimates of particle size determined at various intervals were as detailed below: […]

In a further series the test system is blood pool. As to the kind of experiment: CT imaging, blood pool opacification and clearance. The class given is in vivo, white New Zealand rabbits. How it is done: as §1, §2
Series [3] in a line: Particle size after autoclaving at 121° C. for 20 min. (heat stability). The class given is physicochemical. How it is done: Compound 2 was added to each of 3×1.5 oz brown glass bottles containing approximately 12 ml of zirconium silicate (1.1 mm dia.) beads in an amount sufficient to be 15% (w/v) of the final suspension. Bottle A contained 3% (w/v) Pluronic F-68. Bottle B contained 3% (w/v) Pluronic F108. Bottle C contained 3% (w/v) Tetronic T-908. The resulting suspensions were milled on a roller mill at approximately 150 rpm for a total of 9 days. Estimates of particle size determined at various intervals were as detailed below:
0.1% (w/v) DOSS was added to the F108 and T908 samples for autoclaving as cloud point modifiers.
(§3) Compound 2 was milled with zirconium silicate (1.1 mm dia) beads in the presence of Pluronic F-108 for 3 days. The final particle size was determined to be 235 nm. At this point, sterile PEG 400 was added to the suspension such that at completion, the formulation contained 15% (w/v) WIN 70146, 3% (w/v) Pluronic F-108, and 10% (w/v) PEG 400. This formulation was then autoclaved under standard conditions, i.e., 121° C. for 20 min., resulting in a final particle size of 248 nm.

Series [4] is described as follows: Particle size after milling (light scattering). The class given is physicochemical. How it is done:
15% Compound 2 was milled with 4% Pluronic F-108 in the presence of zirconium silicate (1.1 mm dia) beads for 3 days under aseptic conditions. No additional salts or surfactants were added. The average particle size of the resulting nanoparticle suspension was 162 nm as determined by light scattering.
as §3

Series [5] can be described thus: Crystal forms / polymorphism on recrystallization. The class given is physicochemical. The note with it: e.g., when recrystallized from various solvents.
The mark [6] stands for this setting: 15% Compound 2, 4% Pluronic F-108, 3 ml/kg slow bolus.
The mark [7] stands for this setting: 24 hours post injection, 3 ml/kg.

Where only a bound is given, the exact number is not on record here.

For the compound `CCCCC(OC(=O)c1c(I)c(NC(C)=O)c(I)c(NC(C)=O)c1I)C(=O)OCC` (centres unmarked) [Compound 2, ethyl 2-(3,5-diacetamido-2,4,6-triiodobenzoyloxy)hexanoate], in the series with liver (setting [6]), the “Liver opacification, duration” value stood at 120 min and the “Liver opacification, grade” value is listed as “very good”. Also, the “Clearance from the liver” value with liver (setting [7]) is on record as “partial clearance”. Besides, in series [1], the “Aqueous solubility, times lower than ethyl 2-(3,5-bis(acetylamino)-2,4,6-triiodobenzoyloxy)butyrate” value is “about 40 times”. In addition, in the series with spleen (setting [6]), the “Spleen opacification, duration” value amounted to 120 min and the “Spleen opacification, grade” value is listed as “very good”. The “Clearance from the spleen” value with spleen (setting [7]) is reported as “partial clearance”. Moreover, in the series on lymph, the “Lymphography level of opacification” value is “highest level of opacification noted to date in this indication” and the Lymphography performance entry is “excellent lymphography agent”. Besides, the Shelf stability entry in series [2] was “excellent stability to heat autoclaving and shelf stability”. Besides, in the series with blood pool (setting [6]), the “Blood pool opacification, duration” value is listed as over 30 min and the “Blood pool opacification, grade” value was “excellent”. Moreover, the “Clearance from the blood” value with blood pool (setting [7]) is listed as “complete clearance”. In addition, the “Blood pool opacification, duration” value with blood pool (autoclaved Pluronic F-108/PEG 400 formulation, 3 ml/kg) is “at least 30 min”. Besides, the “Final particle size after autoclaving” value in [3] (15% (w/v) compound, 3% (w/v) Pluronic F-108, 10% (w/v) PEG 400, 121° C. for 20 min.) is recorded as 248 nm. For the same compound, the “Stability to heat autoclaving” value in series [3] (with both F108 and T908) is “excellent stability to heat autoclaving”. Moreover, the Average particle size in series [4] (15% Compound 2, 4% Pluronic F-108, milled 3 days, light scattering) is 162 nm. Further, the “Final particle size after milling” value in series [4] (Pluronic F-108, milled 3 days, before PEG 400 and autoclaving) is given as 235 nm.

Turning to `CCOC(=O)C(CC)OC(=O)c1c(I)c(NC(C)=O)c(I)c(NC(C)=O)c1I` (centres unmarked) [ethyl 2-(3,5-bis(acetylamino)-2,4,6-triiodobenzoyloxy)butyrate, reference compound], in [5], the Crystal forms entry is “exhibits multiple crystal forms, i.e., polymorphs”. The Stability during autoclaving entry in [3] (nanoparticulate formulations, conventional heat sterilization) is on record as “do not exhibit good stability during autoclaving”.
